Laboratory results as given in ChEMBL document CHEMBL5226379, “Hypouricemic Actions of the Pericarp of Mangosteen in Vitro and in Vivo” (J Nat Prod, 2023).
Activity calls are given as the source filed them. The calls are words filed in the database; no cut-off is given here.

How the values were obtained:
Rattus norvegicus [1] = assay: Anti-hyperuricemic activity against potassium oxonate-induced hyperuricemic Sprague-Dawley rat model assessed as serum creatinine level at 4 mg/kg, po pre-administered via gavage twice daily for 5 times followed by potassium oxonate injection for 1 hrs prior to last dose and measured after 3 hrs; type: functional; settings: time 123 hrs
Rattus norvegicus [2] = assay: Anti-hyperuricemic activity against potassium oxonate-induced hyperuricemic Sprague-Dawley rat model assessed as urinary urate at 4 mg/kg, po pre-administered via gavage twice daily for 5 times followed by potassium oxonate injection for 1 hrs prior to last dose and measured after 3 hrs; type: functional; settings: time 123 hrs
Homo sapiens = species: Homo sapiens; assay: Inhibition of uricase (unknown origin) using uric acid as substrate at 112.5 mg/L preincubated with compounds for 15 mins followed by uric acid addition
Rattus norvegicus [3] = assay: Anti-hyperuricemic activity against potassium oxonate-induced hyperuricemic Sprague-Dawley rat model assessed as serum creatinine level at 2 mg/kg, po pre-administered via gavage twice daily for 5 times followed by potassium oxonate injection for 1 hrs prior to last dose and measured after 3 hrs; type: functional; settings: time 123 hrs
Rattus norvegicus [4] = assay: Anti-hyperuricemic activity against potassium oxonate-induced hyperuricemic Sprague-Dawley rat model assessed as clearance of urate measured per body surface area of 0.0311 m2 at 2 mg/kg, po pre-administered via gavage twice daily for 5 times followed by potassium oxonate injection for 1 hrs prior to last dose and measured after 3 hrs; type: functional; settings: time 123 hrs
Rattus norvegicus [5] = assay: Anti-hyperuricemic activity against potassium oxonate-induced hyperuricemic Sprague-Dawley rat model assessed as excretion of urate per volume of glomerular filtration measured per body surface area of 0.0311 m2 at 1 mg/kg, po pre-administered via gavage twice daily for 5 times followed by potassium oxonate injection for 1 hrs prior to last dose and measured after 3 hrs; type: functional; settings: time 123 hrs
Rattus norvegicus [6] = assay: Anti-hyperuricemic activity against potassium oxonate-induced hyperuricemic Sprague-Dawley rat model assessed as urinary urate at 1 mg/kg, po pre-administered via gavage twice daily for 5 times followed by potassium oxonate injection for 1 hrs prior to last dose and measured after 3 hrs; type: functional; settings: time 123 hrs
[7] = target: T1, Xanthine dehydrogenase/oxidase (Homo sapiens, UniProt P47989); assay: Inhibition of XOD (unknown origin) using xanthine as substrate assessed as inhibition of uric acid generation at 100 mg/L preincubated for 15 mins followed by xanthine addition and measured by spectrophotometric analysis relative to control
Mus musculus [8] = assay: Hypouricemic activity in potassium oxonate-induced hyperuricemic Kunming mouse model assessed as decrease in serum uric acid level at 5 mg/kg, IG pre-administered via gavage twice daily for 5 times followed by potassium oxonate injection for 1 hrs prior to last dose by phosphotungstic acid method; type: functional; settings: time 5.0 day
Rattus norvegicus [9] = assay: Anti-hyperuricemic activity against potassium oxonate-induced hyperuricemic Sprague-Dawley rat model assessed as urine volume at 1 mg/kg, po pre-administered via gavage twice daily for 5 times followed by potassium oxonate injection for 1 hrs prior to last dose and measured after 3 hrs; type: functional; settings: time 123 hrs
Rattus norvegicus [10] = assay: Anti-hyperuricemic activity against potassium oxonate-induced hyperuricemic Sprague-Dawley rat model assessed as glomerular load of urate measured per body surface area of 0.0311 m2 at 1 mg/kg, po pre-administered via gavage twice daily for 5 times followed by potassium oxonate injection for 1 hrs prior to last dose and measured after 3 hrs; type: functional; settings: time 123 hrs
Rattus norvegicus [11] = assay: Anti-hyperuricemic activity against potassium oxonate-induced hyperuricemic Sprague-Dawley rat model assessed as excretion of urate per volume of glomerular filtration measured per body surface area of 0.0311 m2 at 2 mg/kg, po pre-administered via gavage twice daily for 5 times followed by potassium oxonate injection for 1 hrs prior to last dose and measured after 3 hrs; type: functional; settings: time 123 hrs
Rattus norvegicus [12] = assay: Anti-hyperuricemic activity against potassium oxonate-induced hyperuricemic Sprague-Dawley rat model assessed as glomerular load of urate measured per body surface area of 0.0311 m2 at 2 mg/kg, po pre-administered via gavage twice daily for 5 times followed by potassium oxonate injection for 1 hrs prior to last dose and measured after 3 hrs; type: functional; settings: time 123 hrs
Rattus norvegicus [13] = assay: Anti-hyperuricemic activity against potassium oxonate-induced hyperuricemic Sprague-Dawley rat model assessed as fractional excretion of urate at 1 mg/kg, po pre-administered via gavage twice daily for 5 times followed by potassium oxonate injection for 1 hrs prior to last dose and measured after 3 hrs relative to control; type: functional; settings: time 123 hrs
Mus musculus [14] = assay: Hypouricemic activity in potassium oxonate-induced hyperuricemic Kunming mouse model assessed as decrease in serum uric acid level at 4 mg/kg, IG pre-administered with potassium oxonate for one hour followed by compound treatment and measured after 2 hrs by phosphotungstic acid method relative to control; type: functional; set-up: scale not given: the % may be the effect or the level left
Mus musculus [15] = assay: Anti-hyperouricemic activity in uric acid-induced hyperuricemic Kunming mouse model assessed as decrease in serum uric acid level at 4 mg/kg, IG pre-administered with uric acid for 30 mins followed by compound treatment and measured after 2 hrs by phosphotungstic acid method; type: functional, organism-based
Rattus norvegicus [16] = assay: Anti-hyperuricemic activity against potassium oxonate-induced hyperuricemic Sprague-Dawley rat model assessed as urinary urate at 2 mg/kg, po pre-administered via gavage twice daily for 5 times followed by potassium oxonate injection for 1 hrs prior to last dose and measured after 3 hrs; type: functional; settings: time 123 hrs
Rattus norvegicus [17] = assay: Anti-hyperuricemic activity against potassium oxonate-induced hyperuricemic Sprague-Dawley rat model assessed as urinary urate level at 2 mg/kg, po pre-administered via gavage twice daily for 5 times followed by potassium oxonate injection for 1 hrs prior to last dose and measured after 3 hrs; type: functional; settings: time 123 hrs
Rattus norvegicus [18] = assay: Anti-hyperuricemic activity against potassium oxonate-induced hyperuricemic Sprague-Dawley rat model assessed as serum urate level at 4 mg/kg, po pre-administered via gavage twice daily for 5 times followed by potassium oxonate injection for 1 hrs prior to last dose and measured after 3 hrs; type: functional; settings: time 123 hrs
Rattus norvegicus [19] = assay: Anti-hyperuricemic activity against potassium oxonate-induced hyperuricemic Sprague-Dawley rat model assessed as urinary creatinine level at 4 mg/kg, po pre-administered via gavage twice daily for 5 times followed by potassium oxonate injection for 1 hrs prior to last dose and measured after 3 hrs; type: functional; settings: time 123 hrs
Rattus norvegicus [20] = assay: Anti-hyperuricemic activity against potassium oxonate-induced hyperuricemic Sprague-Dawley rat model assessed as clearance of urate measured per body surface area of 0.0311 m2 at 1 mg/kg, po pre-administered via gavage twice daily for 5 times followed by potassium oxonate injection for 1 hrs prior to last dose and measured after 3 hrs; type: functional; settings: time 123 hrs
[21] = target: T1, Xanthine dehydrogenase/oxidase; assay: Inhibition of XOD (unknown origin) using xanthine as substrate assessed as inhibition of uric acid generation at 50 mg/L preincubated for 15 mins followed by xanthine addition and measured by spectrophotometric analysis relative to control
Rattus norvegicus [22] = assay: Anti-hyperuricemic activity against potassium oxonate-induced hyperuricemic Sprague-Dawley rat model assessed as urine volume at 2 mg/kg, po pre-administered via gavage twice daily for 5 times followed by potassium oxonate injection for 1 hrs prior to last dose and measured after 3 hrs; type: functional; settings: time 123 hrs
Rattus norvegicus [23] = assay: Anti-hyperuricemic activity against potassium oxonate-induced hyperuricemic Sprague-Dawley rat model assessed as ratio of urinary urate to urinary creatinine at 4 mg/kg, po pre-administered via gavage twice daily for 5 times followed by potassium oxonate injection for 1 hrs prior to last dose and measured after 3 hrs; type: functional; settings: time 123 hrs
Rattus norvegicus [24] = assay: Anti-hyperuricemic activity against potassium oxonate-induced hyperuricemic Sprague-Dawley rat model assessed as fractional excretion of urate at 4 mg/kg, po pre-administered via gavage twice daily for 5 times followed by potassium oxonate injection for 1 hrs prior to last dose and measured after 3 hrs relative to control; type: functional; settings: time 123 hrs
[25] = Acute toxicity in mouse assessed as change in body weight at 50 g/Kg, IG measured for 14 days; settings: in vivo, po, 50000 mg/kg, 336 h, time 14 day
[26] = Acute toxicity in mouse assessed as mortality at 50 g/Kg, IG measured for 14 days; settings: in vivo, po, 50000 mg/kg, 336 h, time 14 day
Rattus norvegicus [27] = assay: Anti-hyperuricemic activity against potassium oxonate-induced hyperuricemic Sprague-Dawley rat model assessed as serum creatinine level at 1 mg/kg, po pre-administered via gavage twice daily for 5 times followed by potassium oxonate injection for 1 hrs prior to last dose and measured after 3 hrs; type: functional; settings: time 123 hrs

T1 sequence (P47989 whole entry): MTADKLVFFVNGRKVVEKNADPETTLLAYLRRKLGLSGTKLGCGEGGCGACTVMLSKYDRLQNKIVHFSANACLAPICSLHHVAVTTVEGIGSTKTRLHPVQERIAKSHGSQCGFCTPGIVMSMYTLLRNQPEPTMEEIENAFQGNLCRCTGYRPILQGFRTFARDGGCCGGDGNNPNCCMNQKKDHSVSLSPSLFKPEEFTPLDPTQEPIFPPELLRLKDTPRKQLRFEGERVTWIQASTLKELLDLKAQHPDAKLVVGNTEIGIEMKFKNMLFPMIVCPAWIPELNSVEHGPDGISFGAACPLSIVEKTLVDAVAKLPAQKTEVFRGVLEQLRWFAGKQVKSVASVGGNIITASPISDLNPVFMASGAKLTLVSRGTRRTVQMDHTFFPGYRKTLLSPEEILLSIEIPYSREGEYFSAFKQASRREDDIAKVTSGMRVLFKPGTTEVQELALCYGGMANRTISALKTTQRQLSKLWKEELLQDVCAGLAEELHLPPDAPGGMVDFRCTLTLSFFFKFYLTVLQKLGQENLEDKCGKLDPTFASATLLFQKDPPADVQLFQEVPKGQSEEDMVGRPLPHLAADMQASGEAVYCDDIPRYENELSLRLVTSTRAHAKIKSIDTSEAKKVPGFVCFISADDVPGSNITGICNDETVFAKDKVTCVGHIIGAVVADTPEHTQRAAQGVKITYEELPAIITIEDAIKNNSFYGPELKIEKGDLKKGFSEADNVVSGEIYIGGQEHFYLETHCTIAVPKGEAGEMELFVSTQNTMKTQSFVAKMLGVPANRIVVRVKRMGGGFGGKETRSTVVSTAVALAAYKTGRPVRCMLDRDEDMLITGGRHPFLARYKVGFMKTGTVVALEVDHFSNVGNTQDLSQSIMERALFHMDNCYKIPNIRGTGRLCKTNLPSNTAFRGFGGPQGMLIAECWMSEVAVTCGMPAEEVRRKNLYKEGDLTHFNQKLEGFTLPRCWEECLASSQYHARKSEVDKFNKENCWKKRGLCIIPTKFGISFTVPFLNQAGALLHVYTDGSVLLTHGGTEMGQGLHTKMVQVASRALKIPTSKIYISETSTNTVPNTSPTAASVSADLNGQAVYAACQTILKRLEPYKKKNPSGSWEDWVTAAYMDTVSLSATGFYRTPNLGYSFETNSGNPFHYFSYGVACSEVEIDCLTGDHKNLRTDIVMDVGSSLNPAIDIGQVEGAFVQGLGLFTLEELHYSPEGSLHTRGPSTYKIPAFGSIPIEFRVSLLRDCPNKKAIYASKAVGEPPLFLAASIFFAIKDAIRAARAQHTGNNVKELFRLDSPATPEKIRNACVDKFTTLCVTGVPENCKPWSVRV

## COc1c(O)cc2oc3cc(O)c(CC=C(C)C)c(O)c3c(=O)c2c1CC=C(C)C [MANGOSTIN]
Rattus norvegicus [1]
  Activity: 55 µmol/L
Rattus norvegicus [2]
  Activity: 476 µmol
Homo sapiens
  inhibition: 6.3%
Rattus norvegicus [3]
  Activity: 55.2 µmol/L
Rattus norvegicus [4]
  Activity: 11.2 mL/min
Rattus norvegicus [5]
  Activity: 4.9 µmol/L
Rattus norvegicus [6]
  Activity: 501 µmol
[7]
  inhibition at 100 µg/mL: 1.4%
Mus musculus [8]
  Activity: Active
Rattus norvegicus [9]
  Activity: 6.8 mL
Rattus norvegicus [10]
  Activity: 4.4 µmol/min
Rattus norvegicus [11]
  Activity: 5.8 µmol/L
Rattus norvegicus [12]
  Activity: 3.6 µmol/min
Rattus norvegicus [13]
  Activity: 71%
Mus musculus [14]
  Activity: 63%
Mus musculus [15]
  Activity: Active
Rattus norvegicus [16]
  Activity: 465 µmol
Rattus norvegicus [17]
  Activity: 2.6 mmol/L
Rattus norvegicus [18]
  Activity: 202 µmol/L
Rattus norvegicus [19]
  Activity: 0.9 mmol/L
Rattus norvegicus [20]
  Activity: 13.6 mL/min
[21]
  inhibition at 50 µg/mL: 4.9%
Rattus norvegicus [22]
  Activity: 5.6 mL
Rattus norvegicus [23]
  Ratio: 2.9
Rattus norvegicus [24]
  Activity: 85%
[25]
  Activity: Non-Toxic
[26]
  Activity: Non-Toxic
Rattus norvegicus [27]
  Activity: 54.4 µmol/L
